SMILES	logP
O=C(O)c1cc(Cl)ccc1O	2.9
Cc1cc(O)ccc1Cl	3.1
CSc1c(C)cc(O)cc1C	2.8
Cc1cc(I)c(O)c(I)c1	4.2
N#Cc1cc(I)c(O)c(I)c1	3.8
COc1c(I)cc(C#N)cc1[N+](=O)[O-]	2.9
N#Cc1cc(I)c(O)c([N+](=O)[O-])c1	2.7
CC(=O)Oc1c(I)cc(C#N)cc1I	3.8
N#Cc1cc(I)cc(I)c1O	4.1
CS(=O)(=O)c1c(F)c(F)c(F)c(F)c1F	1.2
COC(=O)c1cc(I)c(O)c(I)c1	3.9
CCCCN(CCCC)SN(C)C(=O)Oc1cccc2c1OC(C)(C)C2	5
CNC(=O)Oc1c(I)cc(C#N)cc1I	3.3
COc1ccccc1[N+](=O)[O-]	2
Fc1c(F)c(F)c(C(F)(F)F)c(F)c1F	3
Fc1c(F)c(F)c(S)c(F)c1F	2
CC(C)C(=O)Oc1c(I)cc(C#N)cc1I	4.6
O=[N+]([O-])c1ccc(Cl)c(O)c1	2.4
O=C(O)c1cc(I)c(O)c(I)c1	3.7
NC(=S)c1cc(I)c(O)c(I)c1	3.2
COc1c(I)cc(C#N)cc1I	4.1
CSc1ccc(O)cc1C	2.3
CCCCCCCC(=O)Oc1c(I)cc(C#N)cc1I	6.8

Source: the SangsterLogP compilation
